Source: PMC12136037, “Type II kinase inhibitors that target Parkinson’s disease–associated LRRK2” (Science Advances, 2025)

Assays:
Experiment in all cases: DSF 100 kinase selectivity screen;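 note: compound tested at 20 µM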
Format in all cases: binding
[1] = target: T1, ~100 representative kinases (Homo sapiens, UniProt P49841); conditions: protein GSK3B; average of three replicates
T1 construct: Recombinant protein kinase domains with a concentration of 2 μM
Summary of the method: (§1)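 Each kinase domain, at 2 μM, is mixed with 20 μM test compound and SYPRO Orange in Hepes (20 mM, pH 7.5) with 500 mM NaCl. Temperature is then raised at 3°C/min and fluorescence-monitored unfolding yields the melting temperature change, ΔTm in degrees Celsius.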

[2] = target: T2, ~100 representative kinases (Homo sapiens, UniProt P28482); conditions: protein MAPK1; average of three replicates
T2 construct: Recombinant protein kinase domains with a concentration of 2 μM
T2 sequence (P28482 whole entry, the tested form may be a part): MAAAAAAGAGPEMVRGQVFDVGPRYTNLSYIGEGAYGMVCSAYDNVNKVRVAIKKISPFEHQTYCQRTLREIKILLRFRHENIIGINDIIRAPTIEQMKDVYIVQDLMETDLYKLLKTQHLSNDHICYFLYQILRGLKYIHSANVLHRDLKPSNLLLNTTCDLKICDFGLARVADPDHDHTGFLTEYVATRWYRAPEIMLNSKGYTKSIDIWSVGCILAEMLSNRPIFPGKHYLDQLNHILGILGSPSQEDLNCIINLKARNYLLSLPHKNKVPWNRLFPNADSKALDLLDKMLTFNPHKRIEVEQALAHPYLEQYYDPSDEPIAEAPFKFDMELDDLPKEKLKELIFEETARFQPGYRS
Summary of the method: as §1

[3] = target: T3, ~100 representative kinases (Homo sapiens, UniProt P29317); conditions: Protein EPHA2; average of three replicates
T3 construct: Recombinant protein kinase domains with a concentration of 2 μM
T3 sequence (P29317 24-976): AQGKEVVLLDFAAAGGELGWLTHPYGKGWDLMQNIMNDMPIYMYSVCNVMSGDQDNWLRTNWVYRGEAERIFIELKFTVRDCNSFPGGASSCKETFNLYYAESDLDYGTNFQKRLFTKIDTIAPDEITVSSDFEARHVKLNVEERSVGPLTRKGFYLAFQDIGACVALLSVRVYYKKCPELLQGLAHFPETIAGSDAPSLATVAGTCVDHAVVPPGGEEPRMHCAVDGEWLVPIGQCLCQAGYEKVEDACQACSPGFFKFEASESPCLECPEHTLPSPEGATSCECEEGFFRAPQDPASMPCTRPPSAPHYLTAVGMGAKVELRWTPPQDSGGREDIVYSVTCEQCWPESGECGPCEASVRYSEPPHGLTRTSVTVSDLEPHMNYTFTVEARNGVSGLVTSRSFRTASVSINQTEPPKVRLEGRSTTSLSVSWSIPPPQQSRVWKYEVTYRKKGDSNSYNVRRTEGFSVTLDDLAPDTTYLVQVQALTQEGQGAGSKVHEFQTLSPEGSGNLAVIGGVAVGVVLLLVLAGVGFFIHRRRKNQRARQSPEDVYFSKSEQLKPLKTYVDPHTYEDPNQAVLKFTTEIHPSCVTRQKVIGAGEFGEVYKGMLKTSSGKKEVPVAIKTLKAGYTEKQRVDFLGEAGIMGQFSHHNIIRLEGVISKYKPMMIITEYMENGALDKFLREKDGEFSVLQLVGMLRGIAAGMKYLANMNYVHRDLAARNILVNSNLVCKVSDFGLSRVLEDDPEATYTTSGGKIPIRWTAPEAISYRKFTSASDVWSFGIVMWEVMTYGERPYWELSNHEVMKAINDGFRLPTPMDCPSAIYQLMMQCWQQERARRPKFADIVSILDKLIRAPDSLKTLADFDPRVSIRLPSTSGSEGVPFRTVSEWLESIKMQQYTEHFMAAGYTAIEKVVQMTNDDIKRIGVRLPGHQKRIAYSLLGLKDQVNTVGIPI
Summary of the method: as §1

[4] = target: T4, ~100 representative kinases (Homo sapiens, UniProt P07332); conditions: protein FESA; average of three replicates
T4 construct: Recombinant protein kinase domains with a concentration of 2 μM
T4 sequence (P07332 whole entry, the tested form may be a part): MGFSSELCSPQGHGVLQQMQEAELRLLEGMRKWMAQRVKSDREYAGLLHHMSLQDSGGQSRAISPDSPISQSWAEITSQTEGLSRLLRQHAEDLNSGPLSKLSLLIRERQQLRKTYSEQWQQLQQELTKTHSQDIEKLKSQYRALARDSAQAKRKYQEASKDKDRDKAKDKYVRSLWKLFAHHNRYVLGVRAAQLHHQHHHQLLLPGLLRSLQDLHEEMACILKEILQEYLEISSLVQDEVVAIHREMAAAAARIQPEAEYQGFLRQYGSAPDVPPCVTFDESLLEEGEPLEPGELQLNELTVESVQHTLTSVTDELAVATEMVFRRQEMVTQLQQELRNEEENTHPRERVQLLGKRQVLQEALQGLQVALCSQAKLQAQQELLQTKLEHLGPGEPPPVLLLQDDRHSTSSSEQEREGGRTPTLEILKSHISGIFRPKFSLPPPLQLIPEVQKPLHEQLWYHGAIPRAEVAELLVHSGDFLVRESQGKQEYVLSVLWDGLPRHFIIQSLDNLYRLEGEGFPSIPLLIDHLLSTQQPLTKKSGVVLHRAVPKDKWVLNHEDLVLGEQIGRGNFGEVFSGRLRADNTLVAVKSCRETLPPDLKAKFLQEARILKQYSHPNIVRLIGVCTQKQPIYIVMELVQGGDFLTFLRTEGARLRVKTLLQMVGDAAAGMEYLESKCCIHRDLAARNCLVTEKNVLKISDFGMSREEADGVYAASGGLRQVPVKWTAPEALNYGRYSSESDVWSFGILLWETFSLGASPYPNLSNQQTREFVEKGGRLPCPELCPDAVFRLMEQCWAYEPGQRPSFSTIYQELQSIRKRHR
Summary of the method: as §1

[5] = target: T5, ~100 representative kinases (Homo sapiens, UniProt O00444); conditions: protein PLK4; average of three replicates
T5 construct: Recombinant protein kinase domains with a concentration of 2 μM
T5 sequence (O00444 1-970): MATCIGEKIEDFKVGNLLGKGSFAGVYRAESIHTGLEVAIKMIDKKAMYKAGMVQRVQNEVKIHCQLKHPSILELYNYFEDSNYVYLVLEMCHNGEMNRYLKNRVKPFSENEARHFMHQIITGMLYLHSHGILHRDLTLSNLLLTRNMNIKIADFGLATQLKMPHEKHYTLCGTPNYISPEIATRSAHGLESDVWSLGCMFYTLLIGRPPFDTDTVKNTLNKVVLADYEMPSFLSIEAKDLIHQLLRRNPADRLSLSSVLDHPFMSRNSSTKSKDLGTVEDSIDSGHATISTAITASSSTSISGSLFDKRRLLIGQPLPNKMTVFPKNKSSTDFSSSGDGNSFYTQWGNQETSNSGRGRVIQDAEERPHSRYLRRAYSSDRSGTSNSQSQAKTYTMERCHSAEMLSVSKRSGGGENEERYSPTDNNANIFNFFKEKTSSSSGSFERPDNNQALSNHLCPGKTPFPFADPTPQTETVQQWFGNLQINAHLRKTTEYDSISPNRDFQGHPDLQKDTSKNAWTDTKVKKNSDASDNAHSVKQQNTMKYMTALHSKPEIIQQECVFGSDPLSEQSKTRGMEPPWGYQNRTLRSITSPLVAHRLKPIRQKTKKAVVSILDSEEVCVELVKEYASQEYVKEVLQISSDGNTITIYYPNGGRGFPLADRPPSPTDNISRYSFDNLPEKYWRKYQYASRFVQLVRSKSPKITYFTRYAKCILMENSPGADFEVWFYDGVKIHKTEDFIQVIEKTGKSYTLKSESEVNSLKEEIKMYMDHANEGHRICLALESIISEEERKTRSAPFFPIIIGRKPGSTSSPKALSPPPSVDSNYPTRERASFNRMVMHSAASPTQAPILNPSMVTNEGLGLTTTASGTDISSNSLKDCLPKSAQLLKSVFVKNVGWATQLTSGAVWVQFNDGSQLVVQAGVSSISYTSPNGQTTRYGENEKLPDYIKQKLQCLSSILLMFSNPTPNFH
Summary of the method: as §1

[6] = target: T6, ~100 representative kinases (Homo sapiens, UniProt P55201); conditions: Protein BRPF1; average of three replicates
T6 construct: Recombinant protein kinase domains with a concentration of 2 μM
T6 sequence (P55201 1-1214): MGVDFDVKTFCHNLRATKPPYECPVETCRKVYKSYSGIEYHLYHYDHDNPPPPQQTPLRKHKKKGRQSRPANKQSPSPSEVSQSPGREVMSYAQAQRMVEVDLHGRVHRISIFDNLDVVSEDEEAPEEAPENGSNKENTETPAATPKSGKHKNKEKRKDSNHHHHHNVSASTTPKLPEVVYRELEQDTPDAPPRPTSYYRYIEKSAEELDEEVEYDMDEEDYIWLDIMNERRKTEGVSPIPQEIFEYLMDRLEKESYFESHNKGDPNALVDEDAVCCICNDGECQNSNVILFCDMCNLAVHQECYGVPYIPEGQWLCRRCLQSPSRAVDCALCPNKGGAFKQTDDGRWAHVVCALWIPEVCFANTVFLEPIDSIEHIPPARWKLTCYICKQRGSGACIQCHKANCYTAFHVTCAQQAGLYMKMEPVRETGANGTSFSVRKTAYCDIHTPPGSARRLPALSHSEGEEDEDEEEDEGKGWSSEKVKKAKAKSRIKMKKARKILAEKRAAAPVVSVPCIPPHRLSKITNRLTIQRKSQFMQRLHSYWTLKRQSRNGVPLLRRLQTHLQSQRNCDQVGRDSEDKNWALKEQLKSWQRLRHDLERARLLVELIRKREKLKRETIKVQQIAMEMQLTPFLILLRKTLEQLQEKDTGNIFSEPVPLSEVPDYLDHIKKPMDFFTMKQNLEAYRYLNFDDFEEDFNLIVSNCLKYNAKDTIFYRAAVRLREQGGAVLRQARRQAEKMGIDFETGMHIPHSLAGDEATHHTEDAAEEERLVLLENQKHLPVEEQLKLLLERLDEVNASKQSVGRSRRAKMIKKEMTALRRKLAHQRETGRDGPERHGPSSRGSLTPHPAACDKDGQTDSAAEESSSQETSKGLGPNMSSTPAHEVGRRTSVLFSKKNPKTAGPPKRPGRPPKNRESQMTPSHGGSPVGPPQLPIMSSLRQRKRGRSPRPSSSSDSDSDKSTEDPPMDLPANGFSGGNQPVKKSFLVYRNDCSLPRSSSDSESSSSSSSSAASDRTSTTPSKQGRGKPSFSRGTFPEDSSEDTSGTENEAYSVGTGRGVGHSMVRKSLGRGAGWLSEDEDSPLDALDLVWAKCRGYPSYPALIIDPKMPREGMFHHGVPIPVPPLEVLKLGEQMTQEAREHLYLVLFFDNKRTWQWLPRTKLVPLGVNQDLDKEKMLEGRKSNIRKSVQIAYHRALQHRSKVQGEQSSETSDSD
Summary of the method: as §1

[7] = target: T7, ~100 representative kinases (Homo sapiens, UniProt Q13557); conditions: Protein CAMK2D; average of three replicates
T7 construct: Recombinant protein kinase domains with a concentration of 2 μM
T7 sequence (Q13557 whole entry, the tested form may be a part): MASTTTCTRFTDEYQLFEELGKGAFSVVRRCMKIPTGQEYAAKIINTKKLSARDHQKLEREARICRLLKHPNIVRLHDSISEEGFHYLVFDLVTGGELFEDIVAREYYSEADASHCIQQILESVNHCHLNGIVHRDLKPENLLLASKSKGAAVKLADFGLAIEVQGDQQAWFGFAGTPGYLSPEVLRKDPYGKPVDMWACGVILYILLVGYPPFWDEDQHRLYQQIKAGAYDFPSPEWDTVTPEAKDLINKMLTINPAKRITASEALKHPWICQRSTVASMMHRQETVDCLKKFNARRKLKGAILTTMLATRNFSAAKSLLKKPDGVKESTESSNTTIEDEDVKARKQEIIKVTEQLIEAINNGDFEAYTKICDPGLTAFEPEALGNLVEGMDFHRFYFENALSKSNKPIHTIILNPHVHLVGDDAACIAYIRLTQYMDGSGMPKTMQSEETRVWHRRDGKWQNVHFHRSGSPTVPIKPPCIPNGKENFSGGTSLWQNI
Summary of the method: as §1

[8] = target: T8, ~100 representative kinases (Homo sapiens, UniProt P54764); conditions: Protein EPHA4; average of three replicates
T8 construct: Recombinant protein kinase domains with a concentration of 2 μM
T8 sequence (P54764 20-986): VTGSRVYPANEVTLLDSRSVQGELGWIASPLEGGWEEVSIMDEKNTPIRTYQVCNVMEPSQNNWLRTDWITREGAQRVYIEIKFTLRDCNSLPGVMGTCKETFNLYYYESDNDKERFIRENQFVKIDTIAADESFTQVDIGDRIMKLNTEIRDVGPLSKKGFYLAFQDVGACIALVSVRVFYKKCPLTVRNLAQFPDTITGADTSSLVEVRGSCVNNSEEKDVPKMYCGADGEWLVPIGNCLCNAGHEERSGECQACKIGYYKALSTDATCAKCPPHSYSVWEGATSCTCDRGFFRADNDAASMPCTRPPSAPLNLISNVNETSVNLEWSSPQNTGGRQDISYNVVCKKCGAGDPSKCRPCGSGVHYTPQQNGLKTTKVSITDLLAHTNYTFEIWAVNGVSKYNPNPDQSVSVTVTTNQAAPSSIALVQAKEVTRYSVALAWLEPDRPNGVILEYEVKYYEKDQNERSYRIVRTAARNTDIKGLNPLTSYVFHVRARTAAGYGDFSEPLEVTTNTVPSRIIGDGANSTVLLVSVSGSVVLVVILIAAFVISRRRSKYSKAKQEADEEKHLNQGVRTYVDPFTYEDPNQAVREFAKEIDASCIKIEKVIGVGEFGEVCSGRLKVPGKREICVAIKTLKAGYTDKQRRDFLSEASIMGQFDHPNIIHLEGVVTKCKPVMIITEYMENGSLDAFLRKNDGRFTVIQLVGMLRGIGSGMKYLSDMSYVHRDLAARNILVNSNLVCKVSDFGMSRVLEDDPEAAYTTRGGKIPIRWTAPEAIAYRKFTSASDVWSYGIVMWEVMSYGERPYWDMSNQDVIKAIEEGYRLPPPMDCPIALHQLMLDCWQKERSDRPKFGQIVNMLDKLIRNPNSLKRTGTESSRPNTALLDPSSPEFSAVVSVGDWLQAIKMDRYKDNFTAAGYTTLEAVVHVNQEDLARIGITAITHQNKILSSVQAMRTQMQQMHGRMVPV
Summary of the method: as §1

[9] = target: T9, ~100 representative kinases (Homo sapiens, UniProt P68400); conditions: Protein CK2A1; average of three replicates
T9 construct: Recombinant protein kinase domains with a concentration of 2 μM
T9 sequence (P68400 whole entry, the tested form may be a part): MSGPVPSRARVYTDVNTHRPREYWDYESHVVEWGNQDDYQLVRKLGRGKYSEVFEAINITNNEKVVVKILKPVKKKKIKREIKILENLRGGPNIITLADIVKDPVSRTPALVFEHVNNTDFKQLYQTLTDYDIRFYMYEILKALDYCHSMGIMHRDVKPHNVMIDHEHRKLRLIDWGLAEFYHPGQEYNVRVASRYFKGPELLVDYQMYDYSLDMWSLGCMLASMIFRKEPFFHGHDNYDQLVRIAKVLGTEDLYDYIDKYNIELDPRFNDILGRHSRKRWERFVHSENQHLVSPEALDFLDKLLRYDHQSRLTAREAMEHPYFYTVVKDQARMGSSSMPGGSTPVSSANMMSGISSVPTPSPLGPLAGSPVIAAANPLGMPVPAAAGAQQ
Summary of the method: as §1

T1 sequence (P49841 whole entry, the tested form may be a part): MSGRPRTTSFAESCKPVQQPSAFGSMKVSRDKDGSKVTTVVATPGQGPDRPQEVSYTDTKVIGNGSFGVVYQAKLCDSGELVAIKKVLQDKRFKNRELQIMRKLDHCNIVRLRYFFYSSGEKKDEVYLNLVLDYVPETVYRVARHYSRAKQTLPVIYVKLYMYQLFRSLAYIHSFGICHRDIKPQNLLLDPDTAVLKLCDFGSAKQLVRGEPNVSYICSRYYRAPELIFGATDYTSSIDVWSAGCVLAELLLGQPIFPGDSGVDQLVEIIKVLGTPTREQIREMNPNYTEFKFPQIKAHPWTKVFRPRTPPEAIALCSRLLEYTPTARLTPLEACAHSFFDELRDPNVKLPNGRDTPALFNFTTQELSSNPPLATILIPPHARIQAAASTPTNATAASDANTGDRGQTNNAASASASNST

Compound	dTm [1] [K]	dTm [2] [K]	dTm [3] [K]	dTm [4] [K]	dTm [5] [K]	dTm [6] [K]	dTm [7] [K]	dTm [8] [K]	dTm [9] [K]
CCSc1nc(NC)c2c(-c3cccc(NC(=O)Nc4cc(C(C)(C)C)nn4-c4ccc(C)cc4)c3)c[nH]c2n1 [Compound 32]	-0.49	0.25	0.36	3.81	0.48	-0.60	0.32	-0.34	0.23
COc1ccc(NC(=O)C2(C(=O)Nc3cccc(-c4c[nH]c5ncnc(N6CCOCC6)c45)c3)CC2)cc1 [Compound 16]	2.09	-0.34	1.72	3.37	4.53	-0.96	-0.55	-0.05	1.00
C[C@@H]1CN(c2cc(-c3n[nH]c4ccc(OC5(C)CC5)cc34)ncn2)C[C@H](C)O1 [MLi2]	0.56	0.49	0.27	1.83	3.07	-1.36	1.10	-0.15	0.17
CC(C)(C)c1cc(NC(=O)Nc2cccc(-c3c[nH]c4ncnc(N5CCOCC5)c34)c2)n(-c2ccc3ncccc3c2)n1 [Compound 28]	13.25	0.09	14.41	9.54	3.84	0.57	0.51	8.59	0.00

The remaining lines, values ahead:

dTm [1] [K]	dTm [2] [K]	dTm [3] [K]	dTm [4] [K]	dTm [5] [K]	dTm [6] [K]	dTm [7] [K]	dTm [8] [K]	dTm [9] [K]	Compound
4.64	-0.19	3.46	4.33	7.17	-0.10	-0.18	0.68	0.65	Cc1cc(F)ccc1NC(=O)C1(C(=O)Nc2cccc(-c3c[nH]c4ncnc(N5CCOCC5)c34)c2)CC1 [Compound 24]
8.12	1.31	1.56	4.12	7.44	1.49	0.60	0.40	-1.70	O=C(Nc1cccc(-c2c[nH]c3ncnc(N4CCOCC4)c23)c1)C1(C(=O)Nc2cccc3c2CCC3)CC1 [Compound 11]
5.12	-0.47	4.88	4.64	9.77	-0.75	0.37	2.16	2.19	CCc1ccc(NC(=O)C2(C(=O)Nc3cccc(-c4c[nH]c5ncnc(N6CCOCC6)c45)c3)CC2)cc1 [Compound 15]
8.20	-0.09	2.31	6.34	10.46	-0.32	-0.00539	0.24	1.43	COc1cc(NC(=O)C2(C(=O)Nc3cccc(-c4c[nH]c5ncnc(N6CCOCC6)c45)c3)CC2)ccc1F [Compound 21]
7.13	-0.20	4.47	5.87	9.62	0.79	0.36	1.24	-0.81	O=C(Nc1cccc(-c2c[nH]c3ncnc(N4CCOCC4)c23)c1)C1(C(=O)Nc2ccc(F)c(F)c2)CC1 [Compound 17]
